The structures appear in SMILES notation.

The record followed here is US11034692B1 (Genentech, Inc., priority 2017, dated 2021).

One test addresses HPK1. The test can be described thus: HPK1 Lantha Binding Assay ("Lanth"). The note with it: Table B1-1, read-out: HPK1 Ki (μM) (Lanth). The protocol:
HPK1 Lantha Binding Assay (“Lanth”)
The compounds to be tested were diluted by preparing 12.5 uL/well of 5 mM compound (100×) in columns 2 and 13 and 10 ul/well of DMSO in columns 3-12, 14-23, and wells A1-H1 and I24-P24 of the compound plate using a Bravo liquid handling platform. For the reference compound, the top concentration was 1 mM. To the plate was added 10 ul 2 mM staurosporine in wells J1-P1 and A24-H24. A 11 point 5-fold compound serial dilution was performed using the Bravo liquid handling platform. From the plate were transferred 2.5 ul of the solutions from column 2 and column 13 to the 10 ul of DMSO in columns 3 and 14 & so on. The compound plate was centrifuged at 2500 rpm for 1 min. From the compound plate was transferred 80 nl of the compounds into an assay plate using the Echo liquid handler system. One compound plate makes two assay plates. Each assay plate is sealed and stored in an N2 cabinet.
The following assay concentrations and times were used: 2 nM HPK1, 2 nM Eu-Anti-GST Ab, and 15 nM Tracer222, with 60 min incubation time.
III. HPK Lantha Binding Assay:
For the binding assay, 4 ul 2×HPK1 and Eu-anti-GST antibody were added to each well of the assay plate using a Multidrop reagent dispenser. The solutions were incubated in a 23 C incubator for 1 h. To each well of the assay plate was added 4 ul 2× Tracer-222 using a Multidrop reagent dispenser. The solutions were again incubated in a 23 C incubator for 1 h. The results of the assay were read using an Envision plate reader with the following parameters: TR_FRET, 340ex/615 and 665em; 100 usec Delay; and 200 usec integration.
Compound Ki was analyzed using Morrison ki fit model in XL-fit • a. fit=(1−((((E+x)+(Ki*(1+(S/Kd))))−(((((E+x)+(Ki*(1+(S/Kd))))[…])−((4*E)*x))^0.5))/(2*E))) • res=(y-fit) • b. Parameters: • E=enzyme concentration • S=Tracer222 concentration, Kd=Tracer222 Kd • All measurements reported using the same units (uM)
Exemplary compounds of Formula I or Ia were tested in the binding assays. The Ki data in Table B1-1 are based on the “Lanth” assay.
For orientation: Ki means the equilibrium dissociation constant of an inhibitor or competing ligand from its target. `Cc1ccncc1-c1cc2cc(NC(=O)[C@H]3C[C@@H]3C3CNC(=O)O3)ncc2c(N)n1` (stereo partly drawn) [Compound 231, trans-N-(8-amino-6-(4-methylpyridin-3-yl)-2,7-naphthyridin-3-yl)-2-((S)-2-oxooxazolidin-5-yl)cyclopropanecarboxamide]: the Ki was 0.173 nM.
Consider `CNC(=O)c1cc(Nc2cc3cc(-c4cnccc4C)nc(N)c3cn2)nn1C` [Compound 263, 3-[[8-Amino-6-(4-methylpyridin-3-yl)-2,7-naphthyridin-3-yl]amino]-N,1-dimethyl-1H-pyrazole-5-carboxamide], for which the Ki turned out to be 0.021 nM.
For the molecule `Cc1ccncc1-c1nc(N)c2cnc(NC(=O)[C@@H]3C[C@H]3c3cn[nH]c3)cc2c1F` [Compound 196, (1R,2R)—N-(8-amino-5-fluoro-6-(4-methylpyridin-3-yl)-2,7-naphthyridin-3-yl)-2-(1H-pyrazol-4-yl)cyclopropane-1-carboxamide], the Ki amounted to 6.01 nM.
For the molecule `Nc1nc(-c2cnccc2CCO)cc2cc(NC(=O)[C@H]3C[C@@H]3c3cccnc3)ncc12` [Compound 254, (1S,2S)—N-[8-amino-6-[4-(2-hydroxyethyl)pyridin-3-yl]-2,7-naphthyridin-3-yl]-2-(pyridin-3-yl)cyclopropane-1-carboxamide], the inhibition constant Ki was 4.55 nM.
Same read-out and setting: next, `CCc1ccncc1-c1cc2cc(Nc3cnn(CCO)c3)ncc2c(N)n1` [Compound 168, 2-[4-[[8-amino-6-(4-ethyl-3-pyridyl)-2,7-naphthyridin-3-yl]amino]pyrazol-1-yl]ethanol]: 2 nM; `Cc1c(N)cncc1-c1cc2cc(NC(=O)[C@H]3C[C@@H]3C#N)ncc2c(N)n1` [Compound 200, (1S,2S)—N-(8-amino-6-(5-amino-4-methylpyridin-3-yl)-2,7-naphthyridin-3-yl)-2-cyanocyclopropane-1-carboxamide]: 0.343 nM; `Cc1ccncc1-c1cc2cc(Nc3ccn(C)c(=O)c3)ncc2c(N)n1` [Compound 170, 4-[[8-amino-6-(4-methyl-3-pyridyl)-2,7-naphthyridin-3-yl]amino]-1-methyl-pyridin-2-one]: 3 nM.
For the molecule `COCCN1CC(NC(=O)Nc2cc3cc(-c4cnccc4C)nc(N)c3cn2)C1` [Compound 174, 1-(8-amino-6-(4-methylpyridin-3-yl)-2,7-naphthyridin-3-yl)-3-(1-(2-methoxyethyl)azetidin-3-yl)urea], the Ki turned out to be 2.5 nM.
Turning to `Cc1c(N)cncc1-c1cc2cc(NC(=O)[C@@H]3C[C@H]3C#N)ncc2c(N)n1` [Compound 199, (1R,2R)—N-(8-amino-6-(5-amino-4-methylpyridin-3-yl)-2,7-naphthyridin-3-yl)-2-cyanocyclopropane-1-carboxamide], the Ki came out at 3.39 nM.
The same measure, in the same setting: next, `Cc1ccncc1-c1cc2cc(NC(=O)[C@@H]3C[C@H]3C(C)(C)O)ncc2c(N)n1` [Compound 241, (1R,2R)—N-[8-amino-6-(4-methylpyridin-3-yl)-2,7-naphthyridin-3-yl]-2-(2-hydroxypropan-2-yl)cyclopropane-1-carboxamide]: 2.19 nM.
In the case of `Cc1ccccc1-c1cc2cc(NC(=O)[C@H]3C[C@@H]3c3cnn(C)c3)ncc2c(N)n1` [Compound 299, (1S,2S)—N-[8-amino-6-(2-methylphenyl)-2,7-naphthyridin-3-yl]-2-(1-methyl-1H-pyrazol-4-yl)cyclopropane-1-carboxamide], the inhibitory constant (Ki) is 0.0359 nM.
`CNC(=O)Nc1cc2cc(-c3cnn(C)c3)nc(N)c2cn1` [Compound 9, 1-(8-amino-6-(1-methyl-1H-pyrazol-4-yl)-2,7-naphthyridin-3-yl)-3-methylurea]: the Ki came to 7.16 nM.
Still for that read-out and setting: next, `Cc1ccncc1-c1cc2cc(NC(=O)[C@@H]3C[C@]34CCNC(=O)C4)ncc2c(N)n1` [Compound 315, (1R,3R)—N-[8-amino-6-(4-methylpyridin-3-yl)-2,7-naphthyridin-3-yl]-5-oxo-6-azaspiro[2.5]octane-1-carboxamide]: 12.2 nM.
On the same count and under the same terms, next, `Cc1cc(-c2ccccc2)ncc1-c1cc2cc(NC(=O)[C@H]3C[C@@H]3CC#N)ncc2c(N)n1` [Compound 335, (1S,2R)—N-[8-amino-6-(4-methyl-6-phenylpyridin-3-yl)-2,7-naphthyridin-3-yl]-2-(cyanomethyl)cyclopropane-1-carboxamide]: 4.41 nM.
On the same count and under the same terms, next, `CCc1ccncc1-c1cc2cc(NC(=O)c3cc[nH]n3)ncc2c(N)n1` [Compound 71, 2H-Pyrazole-3-carboxylic acid [8-amino-6-(4-ethylpyridin-3-yl)-[2,7]naphthyridin-3-yl]amide]: 10 nM.
For the molecule `Cc1cc(CO)ncc1-c1cc2cc(NC(=O)C3CC3)ncc2c(N)n1` [Compound 25, N-(8-amino-6-(6-(hydroxymethyl)-4-methylpyridin-3-yl)-2,7-naphthyridin-3-yl)cyclopropanecarboxamide], the Ki is 1.54 nM.
Same read-out and setting: next, `Cc1ccncc1-c1cc2cc(Nc3cnn([C@@H]4CCCN(C)C4=O)c3)ncc2c(N)n1` [Compound 251, (3R)-3-(4-[[8-amino-6-(4-methylpyridin-3-yl)-2,7-naphthyridin-3-yl]amino]-1H-pyrazol-1-yl)-1-methylpiperidin-2-one]: 0.512 nM; `Cc1ccncc1-c1cc2cc(NC(=O)[C@@H]3C[C@H]3c3cnn(CCOCCN)c3)ncc2c(N)n1` [Compound 293, (1R,2R)—N-[8-amino-6-(4-methylpyridin-3-yl)-2,7-naphthyridin-3-yl]-2-[1-[2-(2-aminoethoxy)ethyl]-1H-pyrazol-4-yl]cyclopropane-1-carboxamide]: 0.668 nM; `CCc1c(-c2cnccc2C)nc(N)c2cnc(NC(=O)[C@@H]3C[C@H]3CC#N)cc12` [Compound 272, (1R,2S)—N-[8-amino-5-ethyl-6-(4-methylpyridin-3-yl)-2,7-naphthyridin-3-yl]-2-(cyanomethyl)cyclopropane-1-carboxamide]: 0.139 nM.
As to `COc1ccncc1-c1cc2cc(NC(=O)[C@@H]3C[C@@H]3F)ncc2c(N)n1` [Compound 10, (1S,2S)—N-(8-amino-6-(4-methoxypyridin-3-yl)-2,7-naphthyridin-3-yl)-2-fluorocyclopropanecarboxamide], the Ki came out at 1.73 nM.
Still for that read-out and setting: next, `Cc1ccncc1-c1cc2cc(NC(=O)[C@H]3C[C@@H]3c3cnn(C)c3)ncc2c(N)n1` [Compound 197, (1S,2S)—N-(8-amino-6-(4-methylpyridin-3-yl)-2,7-naphthyridin-3-yl)-2-(1-methyl-1H-pyrazol-4-yl)cyclopropane-1-carboxamide]: 0.027 nM; `CCc1ccncc1-c1cc2cc(NC(=O)CC#N)ncc2c(N)n1` [Compound 32, N-[8-amino-6-(4-ethyl-3-pyridyl)-2,7-naphthyridin-3-yl]-2-cyano-acetamide]: 26.4 nM.

The same test, now with this note: Table B1-2, read-out: HPK1 Ki, L = Lanth.
On to `Cc1cc(C2=N[C@@H](C(C)C)CO2)ncc1-c1cc2cc(NC(=O)[C@H]3C[C@@H]3c3cnn(C)c3)ncc2c(N)n1` (stereo in doubt) [Compound 384, trans-N-(8-amino-6-(6-((S)-4-isopropyl-4,5-dihydrooxazol-2-yl)-4-methylpyridin-3-yl)-2,7-naphthyridin-3-yl)-2-(1-methyl-1H-pyrazol-4-yl)cyclopropane-1-carboxamide], for which the Ki was 1.8 nM.
Same read-out and setting: next, `COCc1cccc(C)c1-c1cc2cc(NC(=O)[C@@H]3C[C@H]3c3cnn(C)c3)ncc2c(N)n1` [Compound 428, (1R,2R)-N-(8-amino-6-(2-(methoxymethyl)-6-methylphenyl)-2,7-naphthyridin-3-yl)-2-(1-methyl-1H-pyrazol-4-yl)cyclopropane-1-carboxamide]: 8 nM; `Cc1ccncc1-c1cc2cc(NC(=O)[C@H]3[C@@H]4CC(NS(C)(=O)=O)C[C@@H]43)ncc2c(N)n1` (stereo partly drawn) [Compound 412, N-(8-amino-6-(4-methylpyridin-3-yl)-2,7-naphthyridin-3-yl)-3-(methylsulfonamido)bicyclo[3.1.0]hexane-6-carboxamide]: 96 nM; `Cc1cccc(F)c1-c1cc2cc(NC(=O)[C@@H]3[C@@H](C)[C@H]3c3cnn(C)c3)ncc2c(N)n1` [Compound 354, (1R,2S,3R)—N-[8-amino-6-(2-fluoro-6-methylphenyl)-2,7-naphthyridin-3-yl]-2-methyl-3-(1-methyl-1H-pyrazol-4-yl)cyclopropane-1-carboxamide]: 0.083 nM.
On the same count and under the same terms, next, `Cc1cccc(F)c1-c1cc2cc(NC(=O)[C@H]3[C@H](C)[C@@H]3c3cnn(C)c3)ncc2c(N)n1` [Compound 357, (1S,2R,3S)—N-[8-amino-6-(2-fluoro-6-methylphenyl)-2,7-naphthyridin-3-yl]-2-methyl-3-(1-methyl-1H-pyrazol-4-yl)cyclopropane-1-carboxamide]: 2.7 nM.
